Data taken from US20150272955A1, “Triazolo[4,5-D]Pyrimidine Compounds For Treatment Of Abdominal Aortic Aneurysms” (AstraZeneca AB, priority 2007, published 2015).
Entries after “also recorded” stand apart in the source; their conditions may differ.

Key:
[1] = tested on: experimental aortic aneurysms (mural thrombus and aneurysmal wall); assay: AAA model: histological and immunohistochemical analysis of aneurysm; format: in vivo, rat
Source text: (§1) Experimental aortic aneurysms were induced by implanting a segment of sodium dodecyl sulfate-decellularized guinea-pig aorta (xenogenic matrix) in rat aortas (Allaire E. et al. (1994), J Vasc Surg 19:446-456). This AAA model is characterized by immuno-inflammatory injury of the xenogeneic extracellular matrix (Allaire E et al. (1997), Surgery 122:73-81; Allaire E et al. (1996), Transplantation 62:794-803). Briefly, 46 male Lewis rats (250 g) and 46 guinea-pigs (280 g) (Iffa Credo, Lyon, France) were housed according to the principles of Laboratory Animal Care formulated by the European Union. Animals were anaesthetized by intraperitoneal injection of pentobarbital (5 mg/100 g body weight). Guinea-pig infrarenal aortas (1.5 cm) were sampled and decellularized by sodium dodecyl sulfate treatment to obtain tubes of intact extracellular matrix, which were orthotopically transplanted into the aorta of Lewis rats with 10/0 nylon interrupted sutures (xenograft) (Allaire et al., 1997; Allaire et al., 1996). The initial diameter of the graft was measured in situ, immediately after unclamping, under a binocular microscope. After 24 h, rats were randomly assigned to two equal groups, treated with Compound (A) (10 mg/kg body weight twice daily by oral administration) or with the diluent of Compound (A) (1% carboxymethylcellulose/0.1% Tween-80 in water) for 10 days (D10, n=9 for each group) or 6 weeks (D42, n=14 for each group). At sacrifice, rats were deeply anesthetized, the graft diameter was measured again, and the aorta was dissected out and fixed in 4% paraformaldehyde. Aortic samples were embedded in paraffin and cut at 5 μm.
Sections were stained with picro Sirius red to visualize collagen and fibrin and with orcein to visualize elastin. Immunohistochemistry was performed using anti-human α-actin (dilution 1:500, Dako, Trappes, France), anti-CD68 (macrophages, dilution 1:1000, Serotec, Cergy Saint-Christophe, France), anti-rat polymorphonuclear leukocytes (dilution 1:3000, Cedarlane, Ontario, Canada), anti-CD41 (integrin αIIb, platelets, dilution 1:50, Santa Cruz Biotechnologies) and anti-MMP-9 (dilution 1:50, Calbiochem, Darmstadt, Germany) as primary antibodies and a peroxidase Vector ABC kit for detection (Vector Labs, Burlingame, Calif., USA). Cells were counted with a grid in the microscope eyepiece and averaged in 4 symmetrical fields on the same slide. The size of the areas represented by thrombus, elastic fiber, AAA wall, and MMP-9- and CD41-positive staining were measured by morphometric analysis using Histolab software (Microvision Instruments, Evly, France). Thrombus areas were determined on Sirius red slides. The area occupied by positive staining was quantified by the color detecting mode of the computer program in the inner thrombus and outer wall.
(§2) Results are expressed as means±S.D. The percentage of diameter increase was calculated as follows: (diameter at harvest−diameter at grafting)×100/diameter at grafting. Comparisons between the two groups were made using the nonparametric Mann-Whitney U test (Statview, version 4.5). The frequency of aneurysms of large diameter in the different groups was analyzed by X^2 test. Simple regression analysis was used to test for correlations between various parameters. P<0.05 was considered significant.

[2] = tested on: experimental aortic aneurysms (decellularized guinea-pig aorta xenograft in rat aorta); assay: AAA model: external aneurysmal diameter after xenograft implantation; format: in vivo
Source text: as §1, §2

[3] = Day 42, 10 mg/kg twice daily oral

CCCSc1nc(N[C@@H]2C[C@H]2c2ccc(F)c(F)c2)c2nnn([C@@H]3C[C@H](OCCO)[C@@H](O)[C@H]3O)c2n1 (relative stereo) [Compound (A), {1S-[1α,2α,3β(1S*,2R*),5β]}-3-(7-{[2-(3,4-difluorophenyl)cyclopropyl]amino}-5-(propylthio)-3H-1,2,3-triazolo[4,5-d]pyrimidin-3-yl)-5-(2-hydroxyethoxyl)cyclopentane-1,2-diol]
thrombus area/wall area ([1]; Day 10, 10 mg/kg twice daily oral): 0.07±0.05
thrombus area/wall area [1, 3]: 0.35±0.44
CD41-positive area (platelet marker) within the thrombus ([1]; Day 42, P=0.005 vs control): 0.13±0.16
MMP-9-positive area in the thrombus and the wall ([1]; Day 42, immunostaining): markedly reduced
slope (s) of correlation between thrombus area and aneurysm diameter ([1]; Day 42, intragroup analysis): 0.17
infiltration of PMNs into the mural thrombus ([1]; Days 10 and 42): significantly inhibited
infiltration of macrophages into the mural thrombus ([1]; Days 10 and 42): significantly inhibited
macrophage infiltration into the aneurysmal wall ([1]; Days 10 and 42): did not reach statistical significance; also recorded: no change
elastic fibers of the media (elastic lamellae area) ([1]; Days 10 and 42, orcein staining): significant preservation
SMC colonization of the wall ([1]; after 10 or 42 days): did not affect
density of SMCs within the thrombus ([1]; treatment for 10 days, α-actin staining): did not modify
SMC colonization of the thrombus ([1]; treatment for 42 days, α-actin staining): significantly improved
increase in aneurysmal diameter between Days 10 and 42 ([2]; 10 mg/kg twice daily oral): no increase in aneurysmal diameter was observed
percent increase in external diameter vs control [2, 3]: significantly reduced
incidence of larger aneurysms (diameter >4 mm) ([2]; Day 42, X^2=11.6, P<0.001): predominated in the control group
increase in external aneurysmal diameter ([2]; male Lewis rats, 10 mg/kg twice daily oral, 10 days, n=9): 197.3±52.8%
mean external aneurysmal diameter ([2]; male Lewis rats, 10 mg/kg twice daily oral, Day 10): 2.22±0.56 mm
mean external aneurysmal diameter ([2]; male Lewis rats, 10 mg/kg twice daily oral, Day 42, n=14): 3.61±1.46 mm
